Assay results: the Kinase Knowledgebase extract (Sharma et al. 2016)

Tests used:
PIK3CA (human) [1] = target: PIK3CA (human) (UniProt P42336); assay: Enzyme Assay
PIK3CD (Human) [2] = target: PIK3CD (Human) (UniProt O00329); assay: Enzyme Assay
PIK3CG (human) [3] = target: PIK3CG (human) (UniProt P48736); assay: Enzyme Assay
PIK3CA (human) [4] = target: PIK3CA (human) (UniProt P42336); assay: Cell-Based Assay; conditions: rat-1
PIK3CD (Human) [5] = target: PIK3CD (Human) (UniProt O00329); assay: Cell-Based Assay; conditions: rat-1
PIK3CG (human) [6] = target: PIK3CG (human) (UniProt P48736); assay: Cell-Based Assay; conditions: u937

PIK3CA (human), sequence (P42336 whole entry, looked up): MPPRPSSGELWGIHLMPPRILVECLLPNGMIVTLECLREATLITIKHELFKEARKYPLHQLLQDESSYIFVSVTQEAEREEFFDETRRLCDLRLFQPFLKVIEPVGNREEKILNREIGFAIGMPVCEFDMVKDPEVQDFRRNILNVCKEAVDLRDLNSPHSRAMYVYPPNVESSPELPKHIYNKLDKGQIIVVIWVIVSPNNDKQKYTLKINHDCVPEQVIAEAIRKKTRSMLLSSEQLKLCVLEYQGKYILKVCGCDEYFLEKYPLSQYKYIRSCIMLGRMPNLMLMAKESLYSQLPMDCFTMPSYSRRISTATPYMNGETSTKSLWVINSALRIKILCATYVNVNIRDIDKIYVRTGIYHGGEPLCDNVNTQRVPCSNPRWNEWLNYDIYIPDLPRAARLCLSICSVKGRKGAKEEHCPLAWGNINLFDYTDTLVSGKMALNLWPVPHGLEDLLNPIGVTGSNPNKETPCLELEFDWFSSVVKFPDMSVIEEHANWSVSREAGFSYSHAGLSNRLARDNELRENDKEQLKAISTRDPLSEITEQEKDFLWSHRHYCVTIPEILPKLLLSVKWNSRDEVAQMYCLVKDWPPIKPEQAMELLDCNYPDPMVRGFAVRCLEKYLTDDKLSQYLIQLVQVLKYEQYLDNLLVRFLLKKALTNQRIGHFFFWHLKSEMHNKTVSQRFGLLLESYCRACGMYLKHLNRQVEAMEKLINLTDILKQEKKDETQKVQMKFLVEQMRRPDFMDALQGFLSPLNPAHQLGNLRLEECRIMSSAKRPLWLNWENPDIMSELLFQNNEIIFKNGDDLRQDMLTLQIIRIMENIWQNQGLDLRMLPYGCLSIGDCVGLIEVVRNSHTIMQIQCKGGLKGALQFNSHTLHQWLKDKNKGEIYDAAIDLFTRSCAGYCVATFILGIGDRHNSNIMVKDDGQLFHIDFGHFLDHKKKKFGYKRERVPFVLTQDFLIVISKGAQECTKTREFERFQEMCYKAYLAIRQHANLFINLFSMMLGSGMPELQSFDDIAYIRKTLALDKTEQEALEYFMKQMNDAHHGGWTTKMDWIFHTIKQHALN
PIK3CG (human), sequence (P48736 whole entry, looked up): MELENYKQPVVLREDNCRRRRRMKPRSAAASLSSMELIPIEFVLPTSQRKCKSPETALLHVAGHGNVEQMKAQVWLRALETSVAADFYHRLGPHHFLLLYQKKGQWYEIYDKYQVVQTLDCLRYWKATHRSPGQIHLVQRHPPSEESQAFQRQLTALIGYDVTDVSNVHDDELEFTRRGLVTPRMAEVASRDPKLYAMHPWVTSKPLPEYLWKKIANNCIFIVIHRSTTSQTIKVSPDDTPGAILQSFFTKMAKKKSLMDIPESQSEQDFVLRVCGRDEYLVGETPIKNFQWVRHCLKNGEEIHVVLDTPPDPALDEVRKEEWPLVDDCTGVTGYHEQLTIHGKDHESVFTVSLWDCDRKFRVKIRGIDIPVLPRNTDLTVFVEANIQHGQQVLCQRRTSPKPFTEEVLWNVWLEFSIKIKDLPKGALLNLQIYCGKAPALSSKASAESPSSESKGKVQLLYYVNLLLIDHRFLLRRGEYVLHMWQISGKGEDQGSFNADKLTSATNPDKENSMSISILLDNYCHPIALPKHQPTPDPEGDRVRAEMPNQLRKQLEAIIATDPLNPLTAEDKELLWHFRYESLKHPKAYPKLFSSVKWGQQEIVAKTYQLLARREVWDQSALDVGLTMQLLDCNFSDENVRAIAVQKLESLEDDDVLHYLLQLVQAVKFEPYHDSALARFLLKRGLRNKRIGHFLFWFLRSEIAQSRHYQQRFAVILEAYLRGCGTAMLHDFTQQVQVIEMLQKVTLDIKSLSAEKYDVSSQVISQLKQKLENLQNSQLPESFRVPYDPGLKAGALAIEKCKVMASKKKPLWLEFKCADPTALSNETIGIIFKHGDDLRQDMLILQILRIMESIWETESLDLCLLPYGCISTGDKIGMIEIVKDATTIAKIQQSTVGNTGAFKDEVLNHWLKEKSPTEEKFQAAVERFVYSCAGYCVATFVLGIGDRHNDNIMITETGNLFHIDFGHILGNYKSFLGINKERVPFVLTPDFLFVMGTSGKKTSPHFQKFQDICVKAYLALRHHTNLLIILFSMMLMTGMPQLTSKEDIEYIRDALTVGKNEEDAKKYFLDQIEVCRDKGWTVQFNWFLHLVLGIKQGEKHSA
PIK3CD (Human), sequence (O00329 whole entry, looked up): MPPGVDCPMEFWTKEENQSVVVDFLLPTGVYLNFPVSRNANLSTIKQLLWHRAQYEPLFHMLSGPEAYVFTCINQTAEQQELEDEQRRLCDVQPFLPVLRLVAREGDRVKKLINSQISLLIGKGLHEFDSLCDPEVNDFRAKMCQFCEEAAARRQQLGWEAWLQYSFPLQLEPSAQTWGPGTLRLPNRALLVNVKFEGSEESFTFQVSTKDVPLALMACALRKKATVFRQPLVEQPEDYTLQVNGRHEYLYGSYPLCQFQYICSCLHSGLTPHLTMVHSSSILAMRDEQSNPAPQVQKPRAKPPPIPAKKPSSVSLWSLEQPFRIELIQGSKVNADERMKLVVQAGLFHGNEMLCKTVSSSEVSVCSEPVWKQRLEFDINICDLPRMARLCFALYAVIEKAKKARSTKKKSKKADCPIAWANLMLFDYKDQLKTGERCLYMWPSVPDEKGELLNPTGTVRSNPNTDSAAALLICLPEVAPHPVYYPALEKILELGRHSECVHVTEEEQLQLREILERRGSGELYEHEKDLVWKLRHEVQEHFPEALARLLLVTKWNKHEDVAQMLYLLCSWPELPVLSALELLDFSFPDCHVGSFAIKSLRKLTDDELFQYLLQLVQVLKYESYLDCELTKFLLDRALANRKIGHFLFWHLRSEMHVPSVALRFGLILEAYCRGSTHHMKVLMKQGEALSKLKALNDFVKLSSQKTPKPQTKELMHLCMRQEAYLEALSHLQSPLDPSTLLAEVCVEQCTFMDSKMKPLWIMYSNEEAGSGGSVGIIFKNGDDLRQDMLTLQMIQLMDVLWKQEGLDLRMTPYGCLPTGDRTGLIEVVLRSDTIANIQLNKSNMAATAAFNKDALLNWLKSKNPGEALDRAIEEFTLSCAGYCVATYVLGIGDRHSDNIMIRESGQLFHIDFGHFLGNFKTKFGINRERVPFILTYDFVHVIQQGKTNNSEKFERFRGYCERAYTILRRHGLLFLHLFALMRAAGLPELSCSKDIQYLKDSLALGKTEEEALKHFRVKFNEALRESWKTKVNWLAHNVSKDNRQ

SMILES | IC50 (PIK3CA (human) [1]) [µM] | IC50 (PIK3CD (Human) [2]) [µM] | IC50 (PIK3CG (human) [3]) [µM] | IC50 (PIK3CA (human) [4]) [µM] | IC50 (PIK3CD (Human) [5]) [µM] | IC50 (PIK3CG (human) [6]) [µM]
Cc1nc(N)nc(N2C[C@@H](O)C[C@H]2c2nc3ccc(F)c(F)c3c(=O)n2-c2ccccc2)c1C#N | 0.7 | 0.043 | 0.097 | 7.13 | 0.03 | 0.033
N#Cc1c(N)ncnc1N1CSC[C@H]1c1nc2cccc(Cl)c2c(=O)n1-c1ccccc1 | 2.34 | 0.005 | 0.129 | 8.12 | 0.014 | > 10
Cc1c(F)ccc2nc([C@@H]3C[C@H](O)CN3c3ncnc(N)c3C#N)n(-c3ccccc3)c(=O)c12 | 2.2 | 0.01 | 0.37 | 2.72 | 0.007 | 0.331

Further lines, results first:

IC50 (PIK3CA (human) [1]) [µM] | IC50 (PIK3CD (Human) [2]) [µM] | IC50 (PIK3CG (human) [3]) [µM] | IC50 (PIK3CA (human) [4]) [µM] | IC50 (PIK3CD (Human) [5]) [µM] | IC50 (PIK3CG (human) [6]) [µM] | SMILES
1.4 | 0.016 | 0.21 | 7.22 | 0.091 | 0.034 | O=c1c2c(C(F)(F)F)cccc2nc([C@@H]2C[C@H](O)CN2c2ncnc3[nH]cnc23)n1-c1ccccc1
5.1 | 0.004 | 0.081 | 4.69 | 0.051 | 0.215 | O=c1c2c(Cl)cccc2nc([C@@H]2CCCN2c2ncnc3scnc23)n1-c1ccccc1
0.36 | 0.012 | 0.018 | 1.04 | 0.004 | 0.005 | Cc1nc(N)nc(N2C[C@@H](O)C[C@H]2c2nc3cccc(Cl)c3c(=O)n2-c2ccccc2)c1C#N
3.6 | 0.085 | 0.11 | 8.12 | 0.349 | 0.886 | Nc1nc(N2CCC[C@H]2c2nc3cccc(Cl)c3c(=O)n2C2CC2)c2nc[nH]c2n1
4.2 | 0.1 | 0.23 | > 10 | 0.295 | 0.306 | Cc1nc(N)nc(N2CCC[C@H]2c2nc3cccc(C(F)(F)F)c3c(=O)n2-c2cncnc2)c1C#N
